In US12583826B2, “[(1,5-diphenyl-1H-1,2,4-triazol-3-yl)oxy]acetic acid derivatives and salts thereof, crop protection compositions comprising them, methods for producing them and use thereof as safeners” (Bayer Aktiengesellschaft, priority 2019, dated 2026):

Key:
[1] = system: summer wheat (TRZAS; cv. Triso); assay: Absolute action: reduction of damage by mesosulfuron-methyl on summer wheat, greenhouse post-emergence; type: in vivo; conditions: for Absolute reduction in herbicide damage (damage without safener minus damage with safener): mesosulfuron-methyl 20 g/ha; for Herbicide damage with compound of the formula (I): then mesosulfuron-methyl 20 g/ha, visual 0-100% scale, 14-21 days after application
Method: (§1) 2.1 Absolute Action of Selected Compounds of the Invention Using the Example of Reduction of Damage by Mesosulfuron-Methyl on Summer Wheat (TRZAS) The seeds of the crop plants to be treated are laid out in sandy loam in wood fiber or plastic pots (diameter ˜4 cm), covered with soil and grow in a greenhouse under good conditions for germination and growth. The trial plants were treated at the early leaf stage (BBCH10—BBCH12). In the course of this, the inventive compounds of the general formula (I) formulated in the form of wettable powders (WP) were sprayed onto the above-ground parts of the plants as an aqueous suspension with a water application rate corresponding to 800 l/ha with addition of wetting agent (e.g. 0.2% agrotin) in the specified dose. This was followed by the application of the herbicide. For this purpose, mesosulfuron-methyl, formulated in the form of water-dispersible granules (WG), was sprayed onto the above-ground parts of the plants in the form of an aqueous dispersion with a water application rate corresponding to 800 l/ha with addition of wetting agent (e.g. 0.2% agrotin) in a dose of 20 g/ha. The dose of the herbicide was chosen here such that it causes visually apparent damage (min. 30%, max. 75%) compared to untreated crop plants at the evaluation time on a control group of crop plants without safener treatment that were included in the same trial. After application, the plants were cultivated under good growth conditions in a greenhouse. The damage was visually assessed 14-21 days after application. The damage effect was assessed visually on a scale of 0-100% by comparison with untreated control plants, and averaged over 2-3 repeats per treatment. Examples: • 0%=no noticeable effect compared to the untreated plant • 20%=the treated plant population has 20% damage compared to the untreated control population (e.g. growth height, leaf damage, etc.) • 100%=treated plants completely damaged/killed.

[2] = system: summer barley (HORVS; cv. Montoya); assay: Absolute action: reduction of damage by mesosulfuron-methyl on summer barley, greenhouse post-emergence; type: in vivo; conditions: for Absolute reduction in damage (difference): mesosulfuron-methyl 20 g/ha, damage without minus with safener; for Herbicide damage with compound of the formula (I) (%): then mesosulfuron-methyl 20 g/ha, visual 0-100% scale, 14-21 days after application
Method: as §1, with “2.2 Absolute Action” for “2.1 Absolute Action”, “on Summer Barley (HORVS) The seeds” for “on Summer Wheat (TRZAS) The seeds”, “treated are aid out in” for “treated are laid out in”, “soil and grown in a” for “soil and grow in a”, “leaf stage (BBCE10-BBCH12). In the” for “leaf stage (BBCH10—BBCH12). In the”, “control population (e.g.: growth height,” for “control population (e.g. growth height,”

Structure (SMILES) | Absolute reduction in herbicide damage (damage without safener minus damage with safener) ([1]; safener 1000 g/ha) [%] | Herbicide damage with compound of the formula (I) ([1]; safener 1000 g/ha) [%] | Absolute reduction in herbicide damage (damage without safener minus damage with safener) ([1]; safener 125 g a.i./ha) [%] | Herbicide damage with compound of the formula (I) ([1]; safener 125 g a.i./ha) [%] | Absolute reduction in herbicide damage (damage without safener minus damage with safener) ([1]; safener 500 g a.i./ha) [%] | Herbicide damage with compound of the formula (I) ([1]; safener 500 g a.i./ha) [%] | Absolute reduction in damage (difference) ([2]; safener 500 g a.i./ha) [%] | Herbicide damage with compound of the formula (I) (%) ([2]; safener 500 g a.i./ha) | other results
O=C(O)COc1nc(-c2ccc(Cl)cc2)n(-c2ccc(F)cc2F)n1 [I.21-38] | 23 | 20 | – | – | – | – | – | – | Absolute reduction in damage (difference) ([2]; safener 250 g a.i./ha): 30%; Herbicide damage with compound of the formula (I) (%) ([2]; safener 250 g a.i./ha): 30%; Absolute reduction in damage (difference) ([2]; safener 1000 g a.i./ha): 40%; Herbicide damage with compound of the formula (I) (%) ([2]; safener 1000 g a.i./ha): 20%
COC(=O)COc1nc(-c2ccc(Cl)cc2F)n(-c2ccc(Cl)cc2Cl)n1 [I.46-32] | – | – | 43 | 10 | 46 | 7 | 33 | 27 | Absolute reduction in damage (difference) ([2]; safener 125 g a.i./ha): 27%; Herbicide damage with compound of the formula (I) (%) ([2]; safener 125 g a.i./ha): 33%
O=C(O)COc1nc(-c2ccc(Cl)cc2F)n(-c2ccc(Cl)cc2F)n1 [I.48-49] | – | – | 37 | 23 | 40 | 20 | 60 | 0 | Absolute reduction in damage (difference) ([2]; safener 125 g a.i./ha): 40%; Herbicide damage with compound of the formula (I) (%) ([2]; safener 125 g a.i./ha): 20%
COC(=O)COc1nc(-c2ccccc2F)n(-c2ccc(Cl)cc2Cl)n1 [I.4-32] | – | – | 34 | 23 | 47 | 10 | 44 | 13 | Absolute reduction in damage (difference) ([2]; safener 125 g a.i./ha): 20%; Herbicide damage with compound of the formula (I) (%) ([2]; safener 125 g a.i./ha): 37%
COC(=O)COc1nc(-c2ccccc2F)n(-c2ccc(F)cc2F)n1 [I.4-38] | – | – | 27 | 30 | – | – | 50 | 7 | –
CCOC(=O)COc1nc(-c2cc(F)cc(F)c2)n(-c2ccc(F)cc2)n1 [I.53-4] | 20 | 23 | – | – | – | – | – | – | Absolute reduction in damage (difference) ([2]; safener 250 g a.i./ha): 27%; Herbicide damage with compound of the formula (I) (%) ([2]; safener 250 g a.i./ha): 33%
O=C(O)COc1nc(-c2ccccc2)n(-c2ccc(F)cc2)n1 [I.3-4] | 27 | 23 | – | – | – | – | – | – | Absolute reduction in herbicide damage (damage without safener minus damage with safener) ([1]; safener 250 g/ha): 20%; Herbicide damage with compound of the formula (I) ([1]; safener 250 g/ha): 30%
COC(=O)COc1nc(-c2ccc(Cl)cc2F)n(-c2ccccc2F)n1 [I.46-2] | – | – | 46 | 7 | – | – | 33 | 27 | Absolute reduction in damage (difference) ([2]; safener 125 g a.i./ha): 23%; Herbicide damage with compound of the formula (I) (%) ([2]; safener 125 g a.i./ha): 37%
CCOC(=O)COc1nc(-c2ccc(Cl)cc2Cl)n(-c2ccc(Cl)cc2F)n1 [I.44-49] | – | – | 43 | 10 | 46 | 7 | – | – | Absolute reduction in damage (difference) ([2]; safener 125 g a.i./ha): 30%; Herbicide damage with compound of the formula (I) (%) ([2]; safener 125 g a.i./ha): 30%
O=C(O)COc1nc(-c2ccccc2F)n(-c2ccc(Cl)cc2F)n1 [I.6-49] | – | – | – | – | – | – | – | – | Absolute reduction in herbicide damage (damage without safener minus damage with safener) ([1]; safener 250 g/ha): 30%; Herbicide damage with compound of the formula (I) ([1]; safener 250 g/ha): 27%; Absolute reduction in damage (difference) ([2]; safener 250 g a.i./ha): 20%; Herbicide damage with compound of the formula (I) (%) ([2]; safener 250 g a.i./ha): 40%; Absolute reduction in damage (difference) ([2]; safener 1000 g a.i./ha): 30%; Herbicide damage with compound of the formula (I) (%) ([2]; safener 1000 g a.i./ha): 30%
CCOC(=O)COc1nc(-c2ccc(Cl)cc2F)n(-c2ccc(Cl)cc2Cl)n1 [I.47-32] | – | – | 34 | 23 | 44 | 13 | 47 | 10 | –
CCOC(=O)COc1nc(-c2ccc(Cl)cc2)n(-c2ccccc2)n1 [I.20-1] | 36 | 7 | – | – | – | – | – | – | Absolute reduction in herbicide damage (damage without safener minus damage with safener) ([1]; safener 250 g/ha): 30%; Herbicide damage with compound of the formula (I) ([1]; safener 250 g/ha): 13%
COC(=O)COc1nc(-c2ccc(Cl)cc2F)n(-c2ccc(F)cc2F)n1 [I.46-38] | – | – | 33 | 30 | – | – | 43 | 20 | Absolute reduction in damage (difference) ([2]; safener 125 g a.i./ha): 40%; Herbicide damage with compound of the formula (I) (%) ([2]; safener 125 g a.i./ha): 23%
CCOC(=O)COc1nc(-c2ccccc2F)n(-c2ccc(Cl)cc2Cl)n1 [I.5-32] | 27 | 30 | – | – | – | – | – | – | –
O=C(O)COc1nc(-c2ccc(Cl)cc2Cl)n(-c2ccccc2F)n1 [I.45-2] | – | – | – | – | 20 | 30 | – | – | –
O=C(O)COc1nc(-c2ccccc2F)n(-c2ccc(Cl)cc2Cl)n1 [I.6-32] | – | – | – | – | – | – | – | – | Absolute reduction in damage (difference) ([2]; safener 250 g a.i./ha): 20%; Herbicide damage with compound of the formula (I) (%) ([2]; safener 250 g a.i./ha): 40%
CCOC(=O)COc1nc(-c2ccccc2)n(-c2ccc(F)cc2)n1 [I.2-4] | 20 | 30 | – | – | – | – | – | – | –
CCOC(=O)COc1nc(-c2ccccc2)n(-c2ccc(F)cc2F)n1 [I.2-38] | 20 | 30 | – | – | – | – | – | – | –
O=C(O)COc1nc(-c2ccc(Cl)cc2Cl)n(-c2ccc(Cl)cc2Cl)n1 [I.45-32] | – | – | 23 | 40 | 30 | 33 | – | – | –
COc1ccccc1-c1nc(OCC(=O)O)nn1-c1ccccc1F [I.24-2] | – | – | – | – | 20 | 30 | – | – | –
CCOC(=O)COc1nc(-c2ccc(F)cc2)n(-c2ccc(F)cc2F)n1 [I.11-38] | – | – | – | – | – | – | – | – | Absolute reduction in herbicide damage (damage without safener minus damage with safener) ([1]; safener dose not given): 20%; Herbicide damage with compound of the formula (I) ([1]; safener dose not given): 30%
CCOC(=O)COc1nc(-c2ccc(F)cc2F)n(-c2ccc(F)cc2F)n1 [I.41-38] | – | – | – | – | – | – | – | – | Absolute reduction in damage (difference) ([2]; safener 250 g a.i./ha): 23%; Herbicide damage with compound of the formula (I) (%) ([2]; safener 250 g a.i./ha): 30%; Absolute reduction in damage (difference) ([2]; safener 1000 g a.i./ha): 23%; Herbicide damage with compound of the formula (I) (%) ([2]; safener 1000 g a.i./ha): 30%
